Active and inactive are the calls of the source. No cut-off for these calls is given here.

Series [1] is described as follows: MRT in C57BL/6 mouse plasma at 2.5 mg/kg, iv measured upto 24 hrs post dosing by LC-MS/MS. Type of series: ADME, organism-based. The conditions noted are these: in vivo.
Series [2] in a line: Tmax in C57BL/6 mouse plasma at 10 mg/kg, po measured 4 hrs post dosing by LC-MS/MS. Type of series: ADME, organism-based. The conditions noted are these: in vivo.
Series [3] is described as follows: Oral bioavailability in C57BL/6 mouse plasma at 10 mg/kg, measured upto 24 hrs by LC-MS/MS. Type of series: ADME, organism-based. The conditions noted are these: in vivo.
The test system of series [4] is Chikungunya virus. The series can be described thus: Antiviral activity against CHIKV infected in C57BL/6 mouse assessed as mouse survival at 300 mg/kg/day, ip measured after 6 days post infection. The format is functional, organism-based. To be noted: time 6.0 day.
The subject of series [5] is Chikungunya virus. Nature of the series: Antiviral activity against CHIKV infected in C57BL/6 mouse assessed as footpad swelling at 300 mg/kg/day, ip measured after 6 days post infection (Rvb =40.9+/-12.4). Type of series: functional. The conditions noted are these: time 6 day.
For series [6], the system named is Chikungunya virus. Nature of the series: Antiviral activity against CHIKV infected in C57BL/6 mouse assessed as virus titers at 300 mg/kg/day, ip measured after 6 days post infection (reference value: 5.3+/0.3). Type of series: functional. To be noted: time 6 day.
The test system of series [7] is Chikungunya virus. Nature of the series: Antiviral activity against CHIKV infected in C57BL/6 mouse assessed as virus titers at 100 mg/kg/day, ip measured after 6 days post infection (reference value: 5.3+/0.3). Type of series: functional. The conditions noted are these: time 6 day.
The nature of series [8]: Toxicity in C57BL/6 mouse model assessed as effect on AST level at 300 mg/kg/day, ip measured after 6 days post infection (reference value: 64 to 100). The format is organism-based. The conditions noted are these: in vivo, 144 h, time 6 day.
Series [9] has as its target Polyprotein P1234 (Chikungunya virus (strain S27-African prototype) (CHIKV)) (UniProt Q8JUX6). To be noted: dose 0.27-600 µM.
For another series, the target named is T1, CYP1A (Homo sapiens, UniProt P04798+P05177).
T1 sequence (P04798 whole entry): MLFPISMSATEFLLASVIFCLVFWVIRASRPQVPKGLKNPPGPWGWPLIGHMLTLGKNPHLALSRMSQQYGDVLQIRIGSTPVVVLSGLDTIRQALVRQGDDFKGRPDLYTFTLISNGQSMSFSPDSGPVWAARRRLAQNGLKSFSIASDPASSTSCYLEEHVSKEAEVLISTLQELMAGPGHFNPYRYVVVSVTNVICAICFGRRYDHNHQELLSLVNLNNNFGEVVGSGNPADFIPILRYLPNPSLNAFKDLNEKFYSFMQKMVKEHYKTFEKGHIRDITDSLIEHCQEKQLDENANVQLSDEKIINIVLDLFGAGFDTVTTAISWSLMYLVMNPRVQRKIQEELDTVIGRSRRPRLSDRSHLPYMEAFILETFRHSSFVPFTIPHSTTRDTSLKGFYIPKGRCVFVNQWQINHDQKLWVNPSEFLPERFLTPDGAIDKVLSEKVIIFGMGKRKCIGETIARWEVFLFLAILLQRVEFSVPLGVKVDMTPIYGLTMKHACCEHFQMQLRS
T1 sequence (P05177 whole entry): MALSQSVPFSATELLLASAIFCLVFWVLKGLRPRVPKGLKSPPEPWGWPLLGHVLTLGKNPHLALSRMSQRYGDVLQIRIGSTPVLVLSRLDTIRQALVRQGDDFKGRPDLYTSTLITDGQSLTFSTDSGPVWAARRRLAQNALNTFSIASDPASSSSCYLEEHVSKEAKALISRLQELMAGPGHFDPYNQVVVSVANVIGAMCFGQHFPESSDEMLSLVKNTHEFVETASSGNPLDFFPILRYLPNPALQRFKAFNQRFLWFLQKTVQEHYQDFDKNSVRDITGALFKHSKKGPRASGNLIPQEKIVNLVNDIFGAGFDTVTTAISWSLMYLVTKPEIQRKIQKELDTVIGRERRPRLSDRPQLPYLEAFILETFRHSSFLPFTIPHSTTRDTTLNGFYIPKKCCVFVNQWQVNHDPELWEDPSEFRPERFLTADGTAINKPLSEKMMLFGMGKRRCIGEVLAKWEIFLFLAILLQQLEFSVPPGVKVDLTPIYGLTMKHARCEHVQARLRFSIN
The series can be described thus: Inhibition of CYP1A (unknown origin). The format is ADME, protein assay.

In a further series the target is Cytochrome P450 2C19 (Homo sapiens, UniProt P33261). The series can be described thus: Inhibition of CYP2C19 (unknown origin). The format is ADME.
Series [10] has as its target T2, Potassium voltage-gated channel subfamily KQT member 1 (Homo sapiens, UniProt P51787).
T2 sequence (P51787 whole entry): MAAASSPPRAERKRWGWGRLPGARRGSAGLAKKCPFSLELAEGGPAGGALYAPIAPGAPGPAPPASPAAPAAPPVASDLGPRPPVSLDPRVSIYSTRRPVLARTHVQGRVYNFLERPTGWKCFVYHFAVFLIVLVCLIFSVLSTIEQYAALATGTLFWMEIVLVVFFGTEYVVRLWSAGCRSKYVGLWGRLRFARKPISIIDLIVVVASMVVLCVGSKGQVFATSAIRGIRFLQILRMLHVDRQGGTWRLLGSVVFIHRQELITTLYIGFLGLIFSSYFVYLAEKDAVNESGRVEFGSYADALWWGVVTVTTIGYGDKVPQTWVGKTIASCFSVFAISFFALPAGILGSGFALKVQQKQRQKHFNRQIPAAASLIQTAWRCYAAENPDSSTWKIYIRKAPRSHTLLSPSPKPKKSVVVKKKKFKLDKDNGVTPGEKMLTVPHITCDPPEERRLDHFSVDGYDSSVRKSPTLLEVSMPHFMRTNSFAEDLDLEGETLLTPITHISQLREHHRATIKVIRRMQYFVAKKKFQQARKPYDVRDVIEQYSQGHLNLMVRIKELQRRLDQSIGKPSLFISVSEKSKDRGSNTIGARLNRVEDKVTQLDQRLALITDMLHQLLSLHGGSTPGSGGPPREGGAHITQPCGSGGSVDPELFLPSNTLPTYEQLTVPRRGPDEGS
Nature of the series: Antagonist activity at recombinant hKCNQ1/hmink expressed in CHO-K1 cells by Electrophysiology. The format is toxicity, cell-based.

Cytochrome P450 2C19, sequence (P33261 whole entry): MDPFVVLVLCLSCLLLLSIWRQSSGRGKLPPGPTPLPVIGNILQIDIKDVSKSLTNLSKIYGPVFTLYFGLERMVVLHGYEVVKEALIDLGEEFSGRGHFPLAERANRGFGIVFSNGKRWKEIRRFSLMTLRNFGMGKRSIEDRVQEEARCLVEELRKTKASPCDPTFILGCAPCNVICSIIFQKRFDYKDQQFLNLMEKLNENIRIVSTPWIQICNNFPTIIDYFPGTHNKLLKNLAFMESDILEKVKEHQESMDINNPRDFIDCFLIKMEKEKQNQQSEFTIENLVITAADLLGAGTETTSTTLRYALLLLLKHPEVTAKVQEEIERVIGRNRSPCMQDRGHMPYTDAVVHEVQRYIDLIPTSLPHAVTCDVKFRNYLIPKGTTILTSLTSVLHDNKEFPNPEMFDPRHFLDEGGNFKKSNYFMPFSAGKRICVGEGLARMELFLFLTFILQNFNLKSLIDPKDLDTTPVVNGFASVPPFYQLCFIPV
Polyprotein P1234 (Chikungunya virus (strain S27-African prototype) (CHIKV)), sequence (Q8JUX6 whole entry): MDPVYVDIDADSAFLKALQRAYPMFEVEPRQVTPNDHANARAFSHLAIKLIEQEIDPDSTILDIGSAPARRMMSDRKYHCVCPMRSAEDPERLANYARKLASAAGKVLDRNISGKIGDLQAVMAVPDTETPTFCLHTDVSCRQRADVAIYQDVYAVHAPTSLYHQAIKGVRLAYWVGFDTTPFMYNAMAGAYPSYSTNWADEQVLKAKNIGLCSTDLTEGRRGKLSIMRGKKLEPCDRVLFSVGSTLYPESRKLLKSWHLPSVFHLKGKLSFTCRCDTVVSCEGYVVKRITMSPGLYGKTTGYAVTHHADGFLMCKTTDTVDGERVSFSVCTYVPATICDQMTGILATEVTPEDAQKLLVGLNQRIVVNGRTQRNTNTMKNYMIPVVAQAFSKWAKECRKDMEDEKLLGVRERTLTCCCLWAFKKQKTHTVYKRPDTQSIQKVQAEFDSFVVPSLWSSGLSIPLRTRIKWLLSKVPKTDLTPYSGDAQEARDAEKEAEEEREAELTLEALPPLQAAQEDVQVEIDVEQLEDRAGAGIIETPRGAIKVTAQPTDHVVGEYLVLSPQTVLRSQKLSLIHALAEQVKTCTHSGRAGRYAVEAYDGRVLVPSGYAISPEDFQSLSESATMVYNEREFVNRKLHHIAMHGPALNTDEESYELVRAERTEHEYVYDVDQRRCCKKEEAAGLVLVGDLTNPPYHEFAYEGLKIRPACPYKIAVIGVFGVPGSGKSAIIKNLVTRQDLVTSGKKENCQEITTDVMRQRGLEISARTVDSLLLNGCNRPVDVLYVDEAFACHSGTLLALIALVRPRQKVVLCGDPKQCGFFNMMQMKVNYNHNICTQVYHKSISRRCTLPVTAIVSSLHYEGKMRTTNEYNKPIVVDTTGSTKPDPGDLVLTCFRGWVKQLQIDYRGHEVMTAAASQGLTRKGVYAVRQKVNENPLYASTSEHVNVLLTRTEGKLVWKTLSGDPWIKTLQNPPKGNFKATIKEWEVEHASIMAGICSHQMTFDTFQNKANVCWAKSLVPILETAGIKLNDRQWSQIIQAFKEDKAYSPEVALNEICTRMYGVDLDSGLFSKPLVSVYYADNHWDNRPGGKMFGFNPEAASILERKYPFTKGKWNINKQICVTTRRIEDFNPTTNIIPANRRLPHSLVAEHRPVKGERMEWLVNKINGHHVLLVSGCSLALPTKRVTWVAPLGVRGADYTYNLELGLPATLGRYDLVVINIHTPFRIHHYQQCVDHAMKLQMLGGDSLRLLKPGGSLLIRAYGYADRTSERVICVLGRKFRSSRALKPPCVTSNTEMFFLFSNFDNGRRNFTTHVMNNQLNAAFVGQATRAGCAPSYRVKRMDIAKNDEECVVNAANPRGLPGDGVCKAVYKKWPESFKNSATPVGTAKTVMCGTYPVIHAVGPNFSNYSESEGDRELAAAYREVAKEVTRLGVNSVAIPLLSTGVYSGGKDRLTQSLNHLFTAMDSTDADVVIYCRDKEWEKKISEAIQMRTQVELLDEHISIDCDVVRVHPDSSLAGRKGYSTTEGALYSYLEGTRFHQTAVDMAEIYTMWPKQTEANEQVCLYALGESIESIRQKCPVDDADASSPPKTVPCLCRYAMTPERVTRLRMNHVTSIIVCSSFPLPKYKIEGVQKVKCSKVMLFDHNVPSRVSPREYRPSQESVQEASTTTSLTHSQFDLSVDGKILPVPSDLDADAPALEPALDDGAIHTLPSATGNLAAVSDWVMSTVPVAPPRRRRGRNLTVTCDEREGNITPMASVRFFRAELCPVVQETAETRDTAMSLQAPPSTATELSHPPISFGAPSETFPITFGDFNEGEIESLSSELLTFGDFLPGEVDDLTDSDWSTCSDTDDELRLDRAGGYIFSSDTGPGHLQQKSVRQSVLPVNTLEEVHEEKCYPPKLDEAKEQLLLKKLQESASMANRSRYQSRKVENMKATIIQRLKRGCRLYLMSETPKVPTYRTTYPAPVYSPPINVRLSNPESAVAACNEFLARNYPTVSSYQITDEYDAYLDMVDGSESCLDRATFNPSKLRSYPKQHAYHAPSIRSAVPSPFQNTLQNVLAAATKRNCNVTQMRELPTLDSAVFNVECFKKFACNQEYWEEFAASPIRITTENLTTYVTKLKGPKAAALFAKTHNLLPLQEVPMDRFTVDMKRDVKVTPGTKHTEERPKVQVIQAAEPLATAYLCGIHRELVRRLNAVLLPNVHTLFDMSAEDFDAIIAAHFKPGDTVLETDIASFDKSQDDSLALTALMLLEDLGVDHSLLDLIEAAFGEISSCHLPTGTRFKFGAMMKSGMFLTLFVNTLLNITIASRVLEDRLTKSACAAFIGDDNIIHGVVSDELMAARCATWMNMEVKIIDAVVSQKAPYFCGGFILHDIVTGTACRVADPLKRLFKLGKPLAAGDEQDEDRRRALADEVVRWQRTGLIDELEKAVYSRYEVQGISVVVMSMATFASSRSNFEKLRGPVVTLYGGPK

Usually MRT stands for the average time that molecules of a dose stay in the body. A word on the Tmax: it is the time at which the peak concentration occurs. Usually IC50 stands for the concentration that gives 50% inhibition. For `CC1CCNc2c(C(=O)NC/C=C/S(C)(=O)=O)cccc21` (configuration not stated), the mean residence time MRT in [1] stood at 3.6 min. Further, the Tmax in [2] turned out to be 4 h. Also, the F in series [3] was 95.6%. Further, the Survival result in the series with Chikungunya virus [4] is “Active”. Besides, the Activity with Chikungunya virus [5] is given as 14.1%; in the series with Chikungunya virus [6], 5.3; with Chikungunya virus [7], 5.8; in series [8], 64 U/L. The inhibition result in [9] was “Dose-Dependent Effect”. Further, the IC50 (at CYP1A; at Cytochrome P450 2C19; in series [10]) was above 100 µM in each case.

The record behind these values is ChEMBL document CHEMBL6071156 (Eur J Med Chem, 2024).
